# Target: T1, PI3Kγ (recombinant p101/p110γ protein) (Homo sapiens, UniProt P48736)
# T1 construct: HA; made in house; host or cells: Spodoptera frugiperda (Sf9) cells, baculovirus co-infection
# Assay: PI3Kγ In Vitro Kinase Assay
# Type: biochemical
# Conditions: purified recombinant p101/p110γ with G protein β1/γ2 subunits; 20 μM ATP, [γ-32P-ATP]; 25 μM PIP2 lipid micelles; 20 minutes at room temperature
# Method in brief: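 Baculovirus/Sf9-expressed p101/p110γ (~2.7 nM) with Gβ1/γ2 (~57.7 nM) in HEPES/NaCl/EGTA/DTT buffer; 20 μM ATP plus [γ-32P]ATP, micelles of 25 μM PIP2, 300 μM PE, 10 mM MgCl2. Reactions ran 20 minutes at room temperature; radiolabelled PIP3 captured on glass-fibre filters and counted for IC50.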
# T1 sequence (P48736 whole entry, species assumed): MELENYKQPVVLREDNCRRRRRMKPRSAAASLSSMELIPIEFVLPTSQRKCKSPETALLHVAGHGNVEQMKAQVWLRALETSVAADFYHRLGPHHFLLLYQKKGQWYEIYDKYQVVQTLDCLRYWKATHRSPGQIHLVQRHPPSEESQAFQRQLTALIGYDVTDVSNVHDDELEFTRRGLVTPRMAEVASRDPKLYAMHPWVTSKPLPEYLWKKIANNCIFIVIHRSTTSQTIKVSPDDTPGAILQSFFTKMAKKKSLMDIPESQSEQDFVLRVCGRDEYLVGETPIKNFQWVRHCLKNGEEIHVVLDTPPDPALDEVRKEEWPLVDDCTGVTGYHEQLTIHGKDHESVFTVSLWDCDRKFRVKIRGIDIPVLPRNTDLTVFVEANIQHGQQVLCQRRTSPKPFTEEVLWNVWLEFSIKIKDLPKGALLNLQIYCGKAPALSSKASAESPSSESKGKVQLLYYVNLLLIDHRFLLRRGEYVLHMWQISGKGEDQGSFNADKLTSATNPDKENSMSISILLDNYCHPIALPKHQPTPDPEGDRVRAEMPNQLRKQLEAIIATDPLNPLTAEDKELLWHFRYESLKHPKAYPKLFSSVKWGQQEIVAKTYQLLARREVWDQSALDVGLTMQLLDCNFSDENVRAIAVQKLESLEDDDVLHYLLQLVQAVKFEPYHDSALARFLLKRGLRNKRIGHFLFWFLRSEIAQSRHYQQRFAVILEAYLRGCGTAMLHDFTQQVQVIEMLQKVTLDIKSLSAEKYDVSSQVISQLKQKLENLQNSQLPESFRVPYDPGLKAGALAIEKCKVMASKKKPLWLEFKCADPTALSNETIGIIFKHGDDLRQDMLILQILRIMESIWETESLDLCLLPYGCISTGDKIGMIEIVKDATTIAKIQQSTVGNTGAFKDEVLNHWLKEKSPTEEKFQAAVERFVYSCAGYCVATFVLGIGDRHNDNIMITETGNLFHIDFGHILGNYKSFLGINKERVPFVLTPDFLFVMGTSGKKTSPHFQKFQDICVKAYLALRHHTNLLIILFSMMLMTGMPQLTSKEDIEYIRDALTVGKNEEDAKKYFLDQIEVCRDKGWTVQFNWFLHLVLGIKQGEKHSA
# T1 sequence (Q8WYR1 whole entry partner, species assumed): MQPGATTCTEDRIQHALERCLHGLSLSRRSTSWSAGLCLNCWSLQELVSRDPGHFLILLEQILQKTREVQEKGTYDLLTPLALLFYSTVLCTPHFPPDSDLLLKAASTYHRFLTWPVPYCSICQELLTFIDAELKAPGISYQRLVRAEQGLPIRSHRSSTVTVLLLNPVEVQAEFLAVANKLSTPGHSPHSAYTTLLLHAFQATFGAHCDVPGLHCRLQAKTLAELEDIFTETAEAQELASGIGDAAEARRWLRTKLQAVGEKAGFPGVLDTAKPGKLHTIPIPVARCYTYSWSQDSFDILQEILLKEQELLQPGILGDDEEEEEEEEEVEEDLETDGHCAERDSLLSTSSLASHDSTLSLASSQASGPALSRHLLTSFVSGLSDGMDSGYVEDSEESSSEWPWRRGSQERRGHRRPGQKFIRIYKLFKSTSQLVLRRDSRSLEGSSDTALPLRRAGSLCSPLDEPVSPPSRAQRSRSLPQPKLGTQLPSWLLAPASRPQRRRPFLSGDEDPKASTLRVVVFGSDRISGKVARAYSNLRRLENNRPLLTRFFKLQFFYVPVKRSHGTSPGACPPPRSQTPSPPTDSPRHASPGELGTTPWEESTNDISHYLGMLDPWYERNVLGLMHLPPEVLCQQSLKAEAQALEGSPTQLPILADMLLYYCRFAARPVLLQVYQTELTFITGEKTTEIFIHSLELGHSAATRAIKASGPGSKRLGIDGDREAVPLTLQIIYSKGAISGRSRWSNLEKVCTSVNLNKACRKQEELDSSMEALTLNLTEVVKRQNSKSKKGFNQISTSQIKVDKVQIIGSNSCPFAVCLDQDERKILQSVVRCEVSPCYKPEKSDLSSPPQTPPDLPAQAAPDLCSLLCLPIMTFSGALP
row,Compound,IC50
1,"COc1cc2sc(C(=O)Nc3nnn[nH]3)c(OCCc3cccc4ccccc34)c2cc1OC [Example C.17, 5,6-Dimethoxy-3-(2-naphthalen-1-yl-ethoxy)-benzo[b]thiophene-2-carboxylic acid (1H-tetrazol-5-yl)-amide]",0.715 µM
2,"COc1cc2sc(C(=O)Nc3nnn[nH]3)c(OCc3ccncc3)c2cc1OC [Example C.18, 5,6-Dimethoxy-3-(pyridin-4-ylmethoxy)-benzo[b]thiophene-2-carboxylic acid (1H-tetrazol-5-yl)-amide]",0.45 µM
3,"COc1cc2sc(C(=O)Nc3nnn[nH]3)c(OCc3cccc(N(C)C)c3)c2cc1OC [Example C.19, 3-(3-Dimethylamino-benzyloxy)-5,6-dimethoxy-benzo[b]thiophene-2-carboxylic acid (1H-tetrazol-5-yl)-amide]",0.45 µM
4,"COc1cc2sc(C(=O)Nc3nnn[nH]3)c(OCc3ccccc3OCC3CCCCC3)c2cc1OC [Example C.20, 3-(2-Cyclohexylmethoxy-benzyloxy)-5,6-dimethoxy-benzo[b]thiophene-2-carboxylic acid (1H-tetrazol-5-yl)-amide]",0.41 µM
5,"COc1cc2sc(C(=O)Nc3nnn[nH]3)c(OCCc3cccc4c3CCCC4)c2cc1OC [Example C.21, 5,6-Dimethoxy-3-[2-(5,6,7,8-tetrahydro-naphthalen-1-yl)-ethoxy]-benzo[b]thiophene-2-carboxylic acid (1H-tetrazol-5-yl)-amide]",0.3 µM
6,"COc1cc2sc(C(=O)Nc3nnn[nH]3)c(OCc3cccc4ccccc34)c2cc1OC [Example C.22, 5,6-Dimethoxy-3-(naphthalen-1-ylmethoxy)-benzo[b]thiophene-2-carboxylic acid (1H-tetrazol-5-yl)-amide]",0.29 µM
7,"COc1cc2sc(C(=O)Nc3nnn[nH]3)c(OC[C@@H](C)c3ccccc3)c2cc1OC [Example C.23, 5,6-Dimethoxy-3-((S)-2-phenyl-propoxy)-benzo[b]thiophene-2-carboxylic acid (1H-tetrazol-5-yl)-amide]",0.255 µM
8,"COc1cc2sc(C(=O)Nc3nnn[nH]3)c(OCc3cccc4c3CCCC4)c2cc1OC [Example C.24, 5,6-Dimethoxy-3-(5,6,7,8-tetrahydro-naphthalen-1-ylmethoxy)-benzo[b]thiophene-2-carboxylic acid (1H-tetrazol-5-yl)-amide]",0.255 µM
9,"COc1cc2sc(C(=O)Nc3nnn[nH]3)c(OCc3cccc(OC4CCCC4)c3)c2cc1OC [Example C.25, 3-(3-Cyclopentyloxy-benzyloxy)-5,6-dimethoxy-benzo[b]thiophene-2-carboxylic acid (1H-tetrazol-5-yl)-amide]",0.23 µM
10,"COc1cc2sc(C(=O)Nc3nnn[nH]3)c(OCc3cccc(OCC4CCCCC4)c3)c2cc1OC [Example C.26, 3-(3-Cyclohexylmethoxy-benzyloxy)-5,6-dimethoxy-benzo[b]thiophene-2-carboxylic acid (1H-tetrazol-5-yl)-amide]",0.215 µM
11,"COc1cc2sc(C(=O)Nc3nnn[nH]3)c(OCCc3ccc(N(C)C)cc3)c2cc1OC [Example C.27, 3-[2-(4-Dimethylamino-phenyl)-ethoxy]-5,6-dimethoxy-benzo[b]thiophene-2-carboxylic acid (1H-tetrazol-5-yl)-amide]",0.185 µM
12,"COc1cc2sc(C(=O)Nc3nnn[nH]3)c(OCc3ccc4c(c3)CCCC4)c2cc1OC [Example C.28, 5,6-Dimethoxy-3-(5,6,7,8-tetrahydro-naphthalen-2-ylmethoxy)-benzo[b]thiophene-2-carboxylic acid (1H-tetrazol-5-yl)-amide]",0.185 µM
13,"COc1cc2sc(C(=O)Nc3nnn[nH]3)c(O[C@@H](C)Cc3ccccc3)c2cc1OC [Example C.29, 5,6-Dimethoxy-3-((S)-1-methyl-2-phenyl-ethoxy)-benzo[b]thiophene-2-carboxylic acid (1H-tetrazol-5-yl)-amide]",0.145 µM
14,"COc1cc2sc(C(=O)Nc3nnn[nH]3)c(OCc3ccc(C4CCCCC4)cc3)c2cc1OC [Example C.30, 3-(4-Cyclohexyl-benzyloxy)-5,6-dimethoxy-benzo[b]thiophene-2-carboxylic acid (1H-tetrazol-5-yl)-amide]",0.134 µM
15,"COc1cc2sc(C(=O)Nc3nnn[nH]3)c(OCc3cc(C(C)(C)C)cc(C(C)(C)C)c3)c2cc1OC [Example C.31, 3-(3,5-Di-tert-butyl-benzyloxy)-5,6-dimethoxy-benzo[b]thiophene-2-carboxylic acid (1H-tetrazol-5-yl)-amide]",0.123 µM
16,"COc1cc2sc(C(=O)Nc3nnn[nH]3)c(OCCc3cc(C)cc(C)c3)c2cc1OC [Example C.32, 3-[2-(3,5-Dimethyl-phenyl)-ethoxy]-5,6-dimethoxy-benzo[b]thiophene-2-carboxylic acid (1H-tetrazol-5-yl)-amide]",0.117 µM
17,"COc1cc2sc(C(=O)Nc3nnn[nH]3)c(OCCCc3ccccc3)c2cc1OC [Example C.33, 5,6-Dimethoxy-3-(3-phenyl-propoxy)-benzo[b]thiophene-2-carboxylic acid (1H-tetrazol-5-yl)-amide]",0.115 µM
18,"COc1cc2sc(C(=O)Nc3nnn[nH]3)c(OCC(C)(C)c3ccccc3)c2cc1OC [Example C.34, 5,6-Dimethoxy-3-(2-methyl-2-phenyl-propoxy)-benzo[b]thiophene-2-carboxylic acid (1H-tetrazol-5-yl)-amide]",0.084 µM
19,"COc1cc2sc(C(=O)Nc3nnn[nH]3)c(OC[C@H](C)c3ccccc3)c2cc1OC [Example C.35, 5,6-Dimethoxy-3-((R)-2-phenyl-propoxy)-benzo[b]thiophene-2-carboxylic acid (1H-tetrazol-5-yl)-amide]",0.042 µM
20,"COc1cc2sc(C(=O)Nc3nn[nH]n3)c(Oc3ccccc3)c2cc1C [Example D.1, 6-Methoxy-5-methyl-3-phenoxy-benzo[b]thiophene-2-carboxylic acid (2H-tetrazol-5-yl)-amide]",0.041 µM
21,"COc1cc2sc(C(=O)Nc3nn[nH]n3)c(Oc3cccc(C=O)c3)c2cc1C [Example D.2, 3-(3-Formyl-phenoxy)-6-methoxy-5-methyl-benzo[b]thiophene-2-carboxylic acid (2H-tetrazol-5-yl)-amide]",0.15 µM
22,"COc1cc2sc(C(=O)Nc3nn[nH]n3)c(Oc3cccc(C#N)c3)c2cc1C [Example D.3, 3-(3-Cyano-phenoxy)-6-methoxy-5-methyl-benzo[b]thiophene-2-carboxylic acid (2H-tetrazol-5-yl)-amide]",0.275 µM
23,"CCOc1ccc(Oc2c(C(=O)Nc3nn[nH]n3)sc3cc(OC)c(C)cc23)cc1 [Example D.5, 3-(4-Ethoxy-phenoxy)-6-methoxy-5-methyl-benzo[b]thiophene-2-carboxylic acid (2H-tetrazol-5-yl)-amide]",0.235 µM
24,"COc1cc2sc(C(=O)Nc3nn[nH]n3)c(Oc3ccc(C(C)(C)C)cc3)c2cc1C [Example D.6, 3-(4-tert-Butyl-phenoxy)-6-methoxy-5-methyl-benzo[b]thiophene-2-carboxylic acid (2H-tetrazol-5-yl)-amide]",0.89 µM
25,"COc1cc2sc(C(=O)Nc3nn[nH]n3)c(Oc3cccc(C(C)(C)C)c3)c2cc1C [Example D.7, 3-(3-tert-Butyl-phenoxy)-6-methoxy-5-methyl-benzo[b]thiophene-2-carboxylic acid (2H-tetrazol-5-yl)-amide]",0.23 µM
